The values below come from patent US8865756B2, “Inhibitors of HCV NS5A” (Presidio Pharmaceuticals, Inc., priority 2008, dated 2014).

Each structure is given as a SMILES string. Bounds are passed on as bounds.

This experiment relates to HCV 1b_Huh-Luc/Neo-ET cell line persistently expressing a bicistronic genotype 1b replicon in Huh 7 cells. As to the kind of experiment: HCV replicon assay (luciferase readout). It is filed as cell-based. The note with it: Hepatitis C virus, Huh-7, 72 h, read-out: Inhibition of HCV genotype 1b. In a few lines:
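Huh 7 cells carrying a genotype 1b luciferase/neo replicon treated in triplicate for 72 h, then luciferase activity measured. Signal expressed as % of control; EC50 from four-parameter logistic fit, determined several times.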
For `COC(=O)N[C@H](C(=O)N1CCC[C@H]1c1nc2ccc(C#Cc3ccc(-c4cnc([C@@H]5CCCN5C(=O)[C@@H](C(C)C)N(C)C)[nH]4)cc3)cc2[nH]1)C(C)C` [Compound 865], the EC50 was < 1 nM. Turning to `COC(=O)N[C@H](C(=O)N1CCC[C@H]1c1nc2ccc(C#Cc3ccc(-c4cnc([C@@H]5CCCN5C(=O)[C@H](C(C)C)N(C)C)[nH]4)cc3)cc2[nH]1)C(C)C` [Compound 866], the EC50 is < 1 nM.

As to `COC(=O)N[C@H](C(=O)N[C@@H](C)c1nc2ccc(C#Cc3ccc(-c4cnc([C@@H]5CCCN5C(=O)[C@@H](NC(=O)OC)C(C)C)[nH]4)cc3)cc2[nH]1)C(C)C` [Compound 867], the EC50 was < 1 nM. With `COC(=O)N[C@H](C(=O)N[C@@H](C)c1ncc(-c2ccc(C#Cc3ccc4nc([C@H](C)NC(=O)[C@@H](NC(=O)OC)C(C)C)[nH]c4c3)cc2)[nH]1)C(C)C` [Compound 868] the figure was < 1 nM; with `COC(=O)N[C@H](C(=O)N[C@@H](C)c1ncc(-c2ccc(C#Cc3ccc4nc([C@@H]5CCCN5C(=O)[C@@H](NC(=O)OC)C(C)C)[nH]c4c3)cc2)[nH]1)C(C)C` [Compound 869], < 1 nM. To `CC1(O)CCN(C(=O)N[C@@H](C(=O)N2CCC[C@H]2c2ncc(C#Cc3ccc(-c4ccc(-c5cnc([C@@H]6CCCN6C(=O)[C@H](NC(=O)N6CCC(C)(O)CC6)c6ccccc6)[nH]5)cc4)cc3)[nH]2)c2ccccc2)CC1` [Compound 870] belongs < 1 nM; to `COC(=O)N[C@@H](C(=O)N[C@@H](C)c1ncc(-c2ccc(C#Cc3ccc(-c4cnc([C@H](C)NC(=O)[C@H](NC(=O)OC)C(C)C)[nH]4)cc3)cc2)[nH]1)C(C)C` [Compound 950], < 1 nM. Consider `COC(=O)N[C@H](C(=O)N[C@@H](C)c1ncc(-c2ccc(C#Cc3ccc(-c4cnc([C@H](C)NC(=O)[C@@H](NC(=O)OC)C(C)C)[nH]4)cc3)cc2)[nH]1)C(C)C` [Compound 951], for which the EC50 was < 1 nM. With `COC(=O)N[C@H](C(=O)N[C@@H](C)c1ncc(-c2ccc(C#Cc3ccc(-c4cnc([C@H](C)NC(=O)[C@@H](NC(=O)OC)[C@@H](C)OC)[nH]4)cc3)cc2)[nH]1)[C@@H](C)OC` [Compound 952] the figure was 1 to 9.9 nM. With `COC(=O)N[C@H](C(=O)N1CCC[C@H]1c1ncc(-c2ccc(C#Cc3ccc(-c4cnc([C@@H]5CCCN5C(=O)[C@H](C(C)C)N(C)C)[nH]4)cc3)cc2)[nH]1)C(C)C` [Compound 953] the figure was 1 to 9.9 nM; with `COC(=O)N[C@H](C(=O)N1CCC[C@H]1c1ncc(-c2ccc(C#Cc3ccc(-c4cnc([C@@H]5CCCN5C(=O)[C@@H](C(C)C)N(C)C)[nH]4)cc3)cc2)[nH]1)C(C)C` [Compound 954], 1 to 9.9 nM. As for `COC(=O)N[C@H](C(=O)N1CCC[C@H]1c1ncc(-c2ccc(C#Cc3ccc(-c4cnc([C@@H]5CCCN5C(=O)[C@@H](c5ccccc5)N(C)C)[nH]4)cc3)cc2)[nH]1)C(C)C` [Compound 955], the EC50 is < 1 nM. With `COC(=O)N[C@H](C(=O)N1CCC[C@H]1c1ncc(-c2ccc(C#Cc3ccc(-c4cnc([C@@H]5CCCN5C(=O)[C@@H](c5ccccc5)N5CCC(O)CC5)[nH]4)cc3)cc2)[nH]1)C(C)C` [Compound 956] the figure was < 1 nM; with `COC(=O)N[C@H](C(=O)N1CCC[C@H]1c1ncc(-c2ccc(C#Cc3ccc(-c4cnc([C@@H]5CCCN5C(=O)[C@@H](c5ccccc5)N5CCN(C)CC5)[nH]4)cc3)cc2)[nH]1)C(C)C` [Compound 957], < 1 nM.

Turning to `COC(=O)N[C@H](C(=O)N1CCC[C@H]1c1ncc(-c2ccc(C#Cc3ccc(-c4cnc([C@@H]5CCCN5C(=O)[C@@H](c5ccccc5)N5CCN(CCO)CC5)[nH]4)cc3)cc2)[nH]1)C(C)C` [Compound 958], the EC50 was < 1 nM. To `CC[C@H](NC(=O)OC)C(=O)N1CCC[C@H]1c1ncc(-c2ccc(C#Cc3ccc(-c4cnc([C@@H]5CCCN5C(=O)[C@H](CC)NC(=O)OC)[nH]4)cc3)cc2)[nH]1` [Compound 960] belongs < 1 nM.

As to `COC(=O)N[C@@H](CC(C)C)C(=O)N1CCC[C@H]1c1ncc(-c2ccc(C#Cc3ccc(-c4cnc([C@@H]5CCCN5C(=O)[C@H](CC(C)C)NC(=O)OC)[nH]4)cc3)cc2)[nH]1` [Compound 961], the EC50 was < 1 nM. With `COC(=O)N[C@@H](C)C(=O)N1CCC[C@H]1c1ncc(-c2ccc(C#Cc3ccc(-c4cnc([C@@H]5CCCN5C(=O)[C@H](C)NC(=O)OC)[nH]4)cc3)cc2)[nH]1` [Compound 962] the figure was < 1 nM. As to `COC(=O)N[C@H](C(=O)N[C@@H](C)c1ncc(-c2ccc(C#Cc3ccc(-c4cnc([C@@H]5CCCN5C(=O)[C@H](C(C)C)N(C)C)[nH]4)cc3)cc2)[nH]1)C(C)C` [Compound 963], the EC50 was 1 to 9.9 nM.

Consider `COC(=O)N[C@H](C(=O)N[C@@H](C)c1ncc(-c2ccc(C#Cc3ccc(-c4cnc([C@@H]5CCCN5C(=O)[C@@H](C(C)C)N(C)C)[nH]4)cc3)cc2)[nH]1)C(C)C` [Compound 964], for which the EC50 fell in the range of 1 to 9.9 nM.

Take `COC(=O)N[C@H](C(=O)N[C@@H](C)c1ncc(-c2ccc(C#Cc3ccc(-c4cnc([C@@H]5CCCN5C(=O)[C@@H](c5ccccc5)N(C)C)[nH]4)cc3)cc2)[nH]1)C(C)C` [Compound 965]: the EC50 is < 1 nM.

Consider `CC(C)[C@H](NC(=O)N1CCC(C)(O)CC1)C(=O)N1CCC[C@H]1c1ncc(-c2ccc(C#Cc3ccc(-c4cnc([C@@H]5CCCN5C(=O)[C@@H](NC(=O)N5CCC(C)(O)CC5)C(C)C)[nH]4)cc3)cc2)[nH]1` [Compound 966], for which the EC50 was in the range of 10 to 999 nM. To `CC(C)[C@H](NC(=O)N1CCNCC1)C(=O)N1CCC[C@H]1c1ncc(-c2ccc(C#Cc3ccc(-c4cnc([C@@H]5CCCN5C(=O)[C@@H](NC(=O)N5CCNCC5)C(C)C)[nH]4)cc3)cc2)[nH]1` [Compound 967] belongs 10 to 999 nM; to `CC(C)[C@H](NC(=O)N1CC[C@@H](O)C1)C(=O)N1CCC[C@H]1c1ncc(-c2ccc(C#Cc3ccc(-c4cnc([C@@H]5CCCN5C(=O)[C@@H](NC(=O)N5CC[C@@H](O)C5)C(C)C)[nH]4)cc3)cc2)[nH]1` [Compound 968], 10 to 999 nM; to `COC(=O)N[C@H](C(=O)N[C@@H](C)c1ncc(-c2ccc(C#Cc3ccc(-c4cnc([C@H](C)NC(=O)[C@@H](NC(=O)OC)[C@@H](C)O)[nH]4)cc3)cc2)[nH]1)[C@@H](C)O` [Compound 969], < 1 nM. To `COC(=O)N[C@H](C(=O)N1CCC[C@H]1c1ncc(-c2ccc(C#Cc3ccc(-c4cnc([C@@H]5CCCN5C(=O)[C@@H](c5ccccc5)N5CCC(C)(O)CC5)[nH]4)cc3)cc2)[nH]1)C(C)C` [Compound 970] belongs < 1 nM; to `COC(=O)NC(C(=O)N1CCC[C@H]1c1ncc(-c2ccc(C#Cc3ccc(-c4cnc([C@@H]5CCCN5C(=O)[C@@H](NC(=O)OC)C(C)C)[nH]4)cc3)cc2)[nH]1)[C@@H](C)O` (stereo partly shown) [Compound 971], < 1 nM; to `COC(=O)NC(C(=O)N1CCC[C@H]1c1ncc(-c2ccc(C#Cc3ccc(-c4cnc([C@@H]5CCCN5C(=O)[C@@H](NC(=O)OC)C(C)C)[nH]4)cc3)cc2)[nH]1)[C@@H](C)OC` (stereo partly shown) [Compound 972], < 1 nM. Regarding `COC(=O)N[C@H](C(=O)N1CCC[C@H]1c1ncc(-c2ccc(C#Cc3ccc(-c4cnc([C@@H]5CCCN5C(=O)[C@H](NC(=O)N(CCO)CCO)c5ccccc5)[nH]4)cc3)cc2)[nH]1)C(C)C` [Compound 973], the EC50 is < 1 nM. With `COC(=O)N[C@H](C(=O)N1CCC[C@H]1c1ncc(-c2ccc(C#Cc3ccc(-c4cnc([C@@H]5CCCN5C(=O)[C@H](NC(=O)N5CC[C@H](O)C5)c5ccccc5)[nH]4)cc3)cc2)[nH]1)C(C)C` [Compound 974] the figure was < 1 nM. To `COC(=O)N[C@H](C(=O)N1CCC[C@H]1c1ncc(-c2ccc(C#Cc3ccc(-c4cnc([C@@H]5CCCN5C(=O)[C@H](NC(=O)N5CC[C@@H](O)C5)c5ccccc5)[nH]4)cc3)cc2)[nH]1)C(C)C` [Compound 975] belongs < 1 nM; to `COC[C@H](NC(=O)OC)C(=O)N1CCC[C@H]1c1ncc(-c2ccc(C#Cc3ccc(-c4cnc([C@@H]5CCCN5C(=O)[C@H](COC)NC(=O)OC)[nH]4)cc3)cc2)[nH]1` [Compound 976], < 1 nM. To `COC(=O)N[C@@H](C(=O)N1CCC[C@H]1c1ncc(-c2ccc(C#Cc3ccc(-c4cnc([C@@H]5CCCN5C(=O)[C@H](NC(=O)OC)[C@H](C)OC)[nH]4)cc3)cc2)[nH]1)[C@H](C)OC` [Compound 977] belongs 10 to 999 nM. Take `COC(=O)NC(C(=O)N1CCC[C@H]1c1ncc(-c2ccc(C#Cc3ccc(-c4cnc([C@@H]5CCCN5C(=O)[C@H](NC(=O)OC)[C@H](C)O)[nH]4)cc3)cc2)[nH]1)[C@H](C)O` (stereo partly shown) [Compound 978]: the EC50 was in the range of 10 to 999 nM. Take `C[C@H]1OC(=O)N[C@@H]1C(=O)N1CCC[C@H]1c1ncc(-c2ccc(C#Cc3ccc(-c4cnc([C@@H]5CCCN5C(=O)[C@H]5NC(=O)O[C@@H]5C)[nH]4)cc3)cc2)[nH]1` [Compound 979]: the EC50 was in the range of 10 to 999 nM.

For `C[C@H]1OC(=O)N(C)[C@@H]1C(=O)N1CCC[C@H]1c1ncc(-c2ccc(C#Cc3ccc(-c4cnc([C@@H]5CCCN5C(=O)[C@@H]5[C@@H](C)OC(=O)N5C)[nH]4)cc3)cc2)[nH]1` [Compound 980], the EC50 was in the range of 10 to 999 nM. With `COC(=O)N[C@H](C(=O)N1CCC[C@H]1c1ncc(-c2ccc(C#Cc3ccc(-c4cnc([C@H](C)NC(=O)[C@H](C(C)C)N(C)C)[nH]4)cc3)cc2)[nH]1)C(C)C` [Compound 981] the figure was 10 to 999 nM; with `COC(=O)N[C@H](C(=O)N1CCC[C@H]1c1ncc(-c2ccc(C#Cc3ccc(-c4cnc([C@H](C)NC(=O)[C@@H](C(C)C)N(C)C)[nH]4)cc3)cc2)[nH]1)C(C)C` [Compound 982], 10 to 999 nM. In the case of `COC(=O)N[C@H](C(=O)N1CCC[C@H]1c1ncc(-c2ccc(C#Cc3ccc(-c4cnc([C@H](C)NC(=O)[C@@H](c5ccccc5)N(C)C)[nH]4)cc3)cc2)[nH]1)C(C)C` [Compound 983], the EC50 was < 1 nM. `COC(=O)N[C@H](C(=O)N1CCC[C@H]1c1ncc(-c2ccc(C#Cc3ccc(-c4cnc([C@@H]5CCCN5C(=O)[C@@H](c5ccccc5)N5CCCC5)[nH]4)cc3)cc2)[nH]1)C(C)C` [Compound 984]: the EC50 was < 1 nM.
